{"source": "PubChem BioAssay (NCI)", "assay_in_all_cases": "NCI anticancer screen, dose series, 384-well format", "key": {"ACHN renal": {"test_system": "ACHN renal"}, "BT-549 breast": {"test_system": "BT-549 breast"}, "CAKI-1 renal": {"test_system": "CAKI-1 renal"}, "CCRF-CEM leukemia": {"test_system": "CCRF-CEM leukemia"}, "COLO 205 colon": {"test_system": "COLO 205 colon"}, "DU-145 prostate": {"test_system": "DU-145 prostate"}, "EKVX NSCLC": {"test_system": "EKVX NSCLC"}, "HCT-116 colon": {"test_system": "HCT-116 colon"}, "HCT-15 colon": {"test_system": "HCT-15 colon"}, "HL-60(TB) leukemia": {"test_system": "HL-60(TB) leukemia"}, "HOP-62 NSCLC": {"test_system": "HOP-62 NSCLC"}, "HOP-92 NSCLC": {"test_system": "HOP-92 NSCLC"}, "HT29 colon": {"test_system": "HT29 colon"}, "K-562 leukemia": {"test_system": "K-562 leukemia"}, "KM12 colon": {"test_system": "KM12 colon"}, "LOX IMVI melanoma": {"test_system": "LOX IMVI melanoma"}, "M14 melanoma": {"test_system": "M14 melanoma"}, "MCF7 breast": {"test_system": "MCF7 breast"}, "MDA-MB-231 breast": {"test_system": "MDA-MB-231 breast"}, "MDA-MB-435 melanoma": {"test_system": "MDA-MB-435 melanoma"}, "MDA-MB-468 breast": {"test_system": "MDA-MB-468 breast"}, "MOLT-4 leukemia": {"test_system": "MOLT-4 leukemia"}, "NCI-H23 lung": {"test_system": "NCI-H23 lung"}, "NCI-H322M lung": {"test_system": "NCI-H322M lung"}, "NCI-H460 NSCLC": {"test_system": "NCI-H460 NSCLC"}, "NCI/ADR-RES ovarian": {"test_system": "NCI/ADR-RES ovarian"}, "OVCAR-3 ovarian": {"test_system": "OVCAR-3 ovarian"}, "OVCAR-4 ovarian": {"test_system": "OVCAR-4 ovarian"}, "OVCAR-5 ovarian": {"test_system": "OVCAR-5 ovarian"}, "PC-3 prostate": {"test_system": "PC-3 prostate"}, "RPMI-8226 leukemia": {"test_system": "RPMI-8226 leukemia"}, "RXF 393 renal": {"test_system": "RXF 393 renal"}, "SF-268 CNS": {"test_system": "SF-268 CNS"}, "SF-295 CNS": {"test_system": "SF-295 CNS"}, "SK-MEL-2 melanoma": {"test_system": "SK-MEL-2 melanoma"}, "SK-MEL-28 melanoma": {"test_system": "SK-MEL-28 melanoma"}, "SK-MEL-5 melanoma": {"test_system": "SK-MEL-5 melanoma"}, "SK-OV-3 ovarian": {"test_system": "SK-OV-3 ovarian"}, "SN12C renal": {"test_system": "SN12C renal"}, "SNB-19 CNS": {"test_system": "SNB-19 CNS"}, "SNB-75 CNS": {"test_system": "SNB-75 CNS"}, "SR leukemia": {"test_system": "SR leukemia"}, "SW-620 colon": {"test_system": "SW-620 colon"}, "T-47D breast": {"test_system": "T-47D breast"}, "TK-10 renal": {"test_system": "TK-10 renal"}, "UACC-257 melanoma": {"test_system": "UACC-257 melanoma"}, "UACC-62 melanoma": {"test_system": "UACC-62 melanoma"}}, "note": "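At the GI50, growth is halved. Definition used: TGI = concentration required for complete inhibition of growth.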", "data": [{"smiles": "Cn1cc(CNCC2CCN(c3ncc(C(=O)NO)cn3)CC2)c2ccccc21", "values": [{"measurement": "GI50", "setting": "ACHN renal", "result": 14.3, "unit": "nM"}, {"measurement": "TGI", "setting": "ACHN renal", "result": 34.9, "unit": "nM"}, {"measurement": "GI50", "setting": "BT-549 breast", "result": 21.6, "unit": "nM"}, {"measurement": "TGI", "setting": "BT-549 breast", "result": 75.8, "unit": "nM"}, {"measurement": "GI50", "setting": "CAKI-1 renal", "result": "< 11.2", "unit": "nM"}, {"measurement": "TGI", "setting": "CAKI-1 renal", "result": 26, "unit": "nM"}, {"measurement": "GI50", "setting": "CCRF-CEM leukemia", "result": "< 10", "unit": "nM"}, {"measurement": "TGI", "setting": "CCRF-CEM leukemia", "result": "< 10.8", "unit": "nM"}, {"measurement": "GI50", "setting": "COLO 205 colon", "result": "< 10", "unit": "nM"}, {"measurement": "TGI", "setting": "COLO 205 colon", "result": 18.3, "unit": "nM"}, {"measurement": "GI50", "setting": "DU-145 prostate", "result": "< 10", "unit": "nM"}, {"measurement": "TGI", "setting": "DU-145 prostate", "result": 22.9, "unit": "nM"}, {"measurement": "GI50", "setting": "EKVX NSCLC", "result": 30.4, "unit": "nM"}, {"measurement": "TGI", "setting": "EKVX NSCLC", "result": 303, "unit": "nM"}, {"measurement": "GI50", "setting": "HCT-116 colon", "result": "< 10", "unit": "nM"}, {"measurement": "TGI", "setting": "HCT-116 colon", "result": 15.7, "unit": "nM"}, {"measurement": "GI50", "setting": "HCT-15 colon", "result": 49.4, "unit": "nM"}, {"measurement": "TGI", "setting": "HCT-15 colon", "result": 300, "unit": "nM"}, {"measurement": "GI50", "setting": "HL-60(TB) leukemia", "result": "< 10", "unit": "nM"}, {"measurement": "TGI", "setting": "HL-60(TB) leukemia", "result": "< 10", "unit": "nM"}, {"measurement": "GI50", "setting": "HOP-62 NSCLC", "result": "< 11.8", "unit": "nM"}, {"measurement": "TGI", "setting": "HOP-62 NSCLC", "result": 62.1, "unit": "nM"}, {"measurement": "GI50", "setting": "HOP-92 NSCLC", "result": "< 12.2", "unit": "nM"}, {"measurement": "TGI", "setting": "HOP-92 NSCLC", "result": 31.7, "unit": "nM"}, {"measurement": "GI50", "setting": "HT29 colon", "result": 10, "unit": "nM"}, {"measurement": "TGI", "setting": "HT29 colon", "result": 21.6, "unit": "nM"}, {"measurement": "GI50", "setting": "K-562 leukemia", "result": "< 10.5", "unit": "nM"}, {"measurement": "TGI", "setting": "K-562 leukemia", "result": 22.6, "unit": "nM"}, {"measurement": "GI50", "setting": "KM12 colon", "result": 16.7, "unit": "nM"}, {"measurement": "TGI", "setting": "KM12 colon", "result": 63.6, "unit": "nM"}, {"measurement": "GI50", "setting": "LOX IMVI melanoma", "result": 12.1, "unit": "nM"}, {"measurement": "TGI", "setting": "LOX IMVI melanoma", "result": 24.9, "unit": "nM"}, {"measurement": "GI50", "setting": "M14 melanoma", "result": "< 10", "unit": "nM"}, {"measurement": "TGI", "setting": "M14 melanoma", "result": 105, "unit": "nM"}, {"measurement": "GI50", "setting": "MCF7 breast", "result": "< 10", "unit": "nM"}, {"measurement": "TGI", "setting": "MCF7 breast", "result": 20.9, "unit": "nM"}, {"measurement": "GI50", "setting": "MDA-MB-231 breast", "result": 14.3, "unit": "nM"}, {"measurement": "TGI", "setting": "MDA-MB-231 breast", "result": 37.2, "unit": "nM"}, {"measurement": "GI50", "setting": "MDA-MB-435 melanoma", "result": 12.1, "unit": "nM"}, {"measurement": "TGI", "setting": "MDA-MB-435 melanoma", "result": 29.7, "unit": "nM"}, {"measurement": "GI50", "setting": "MDA-MB-468 breast", "result": "< 10", "unit": "nM"}, {"measurement": "TGI", "setting": "MDA-MB-468 breast", "result": "< 10", "unit": "nM"}, {"measurement": "GI50", "setting": "MOLT-4 leukemia", "result": "< 10", "unit": "nM"}, {"measurement": "TGI", "setting": "MOLT-4 leukemia", "result": "< 10", "unit": "nM"}, {"measurement": "GI50", "setting": "NCI-H23 lung", "result": 13.1, "unit": "nM"}, {"measurement": "TGI", "setting": "NCI-H23 lung", "result": 42.1, "unit": "nM"}, {"measurement": "GI50", "setting": "NCI-H322M lung", "result": 12.3, "unit": "nM"}, {"measurement": "TGI", "setting": "NCI-H322M lung", "result": 40.5, "unit": "nM"}, {"measurement": "GI50", "setting": "NCI-H460 NSCLC", "result": "< 11.1", "unit": "nM"}, {"measurement": "TGI", "setting": "NCI-H460 NSCLC", "result": 37.1, "unit": "nM"}, {"measurement": "GI50", "setting": "NCI/ADR-RES ovarian", "result": 94.9, "unit": "nM"}, {"measurement": "TGI", "setting": "NCI/ADR-RES ovarian", "result": 329, "unit": "nM"}, {"measurement": "GI50", "setting": "OVCAR-3 ovarian", "result": 12.2, "unit": "nM"}, {"measurement": "TGI", "setting": "OVCAR-3 ovarian", "result": 28.6, "unit": "nM"}, {"measurement": "GI50", "setting": "OVCAR-4 ovarian", "result": 18.9, "unit": "nM"}, {"measurement": "TGI", "setting": "OVCAR-4 ovarian", "result": 46.6, "unit": "nM"}, {"measurement": "GI50", "setting": "OVCAR-5 ovarian", "result": "< 10", "unit": "nM"}, {"measurement": "TGI", "setting": "OVCAR-5 ovarian", "result": 23.6, "unit": "nM"}, {"measurement": "GI50", "setting": "PC-3 prostate", "result": "< 12.3", "unit": "nM"}, {"measurement": "TGI", "setting": "PC-3 prostate", "result": 46.2, "unit": "nM"}, {"measurement": "GI50", "setting": "RPMI-8226 leukemia", "result": "< 10", "unit": "nM"}, {"measurement": "TGI", "setting": "RPMI-8226 leukemia", "result": "< 10", "unit": "nM"}, {"measurement": "GI50", "setting": "RXF 393 renal", "result": 16.2, "unit": "nM"}, {"measurement": "TGI", "setting": "RXF 393 renal", "result": 35.5, "unit": "nM"}, {"measurement": "GI50", "setting": "SF-268 CNS", "result": "< 10.4", "unit": "nM"}, {"measurement": "TGI", "setting": "SF-268 CNS", "result": 24.4, "unit": "nM"}, {"measurement": "GI50", "setting": "SF-295 CNS", "result": 16.1, "unit": "nM"}, {"measurement": "TGI", "setting": "SF-295 CNS", "result": 54.4, "unit": "nM"}, {"measurement": "GI50", "setting": "SK-MEL-2 melanoma", "result": "< 10", "unit": "nM"}, {"measurement": "TGI", "setting": "SK-MEL-2 melanoma", "result": 10.6, "unit": "nM"}, {"measurement": "GI50", "setting": "SK-MEL-28 melanoma", "result": "< 11", "unit": "nM"}, {"measurement": "TGI", "setting": "SK-MEL-28 melanoma", "result": 27.6, "unit": "nM"}, {"measurement": "GI50", "setting": "SK-MEL-5 melanoma", "result": "< 10", "unit": "nM"}, {"measurement": "TGI", "setting": "SK-MEL-5 melanoma", "result": "< 10", "unit": "nM"}, {"measurement": "GI50", "setting": "SK-OV-3 ovarian", "result": 15.5, "unit": "nM"}, {"measurement": "TGI", "setting": "SK-OV-3 ovarian", "result": 32.9, "unit": "nM"}, {"measurement": "GI50", "setting": "SN12C renal", "result": 14.1, "unit": "nM"}, {"measurement": "TGI", "setting": "SN12C renal", "result": 29.7, "unit": "nM"}, {"measurement": "GI50", "setting": "SNB-19 CNS", "result": 17.3, "unit": "nM"}, {"measurement": "TGI", "setting": "SNB-19 CNS", "result": 45.7, "unit": "nM"}, {"measurement": "GI50", "setting": "SNB-75 CNS", "result": 10.1, "unit": "nM"}, {"measurement": "TGI", "setting": "SNB-75 CNS", "result": 46.1, "unit": "nM"}, {"measurement": "GI50", "setting": "SR leukemia", "result": "< 10", "unit": "nM"}, {"measurement": "TGI", "setting": "SR leukemia", "result": "< 10", "unit": "nM"}, {"measurement": "GI50", "setting": "SW-620 colon", "result": 12.9, "unit": "nM"}, {"measurement": "TGI", "setting": "SW-620 colon", "result": 26.2, "unit": "nM"}, {"measurement": "GI50", "setting": "T-47D breast", "result": "< 10", "unit": "nM"}, {"measurement": "TGI", "setting": "T-47D breast", "result": 15.5, "unit": "nM"}, {"measurement": "GI50", "setting": "TK-10 renal", "result": 12.2, "unit": "nM"}, {"measurement": "TGI", "setting": "TK-10 renal", "result": 38.3, "unit": "nM"}, {"measurement": "GI50", "setting": "UACC-257 melanoma", "result": "< 10", "unit": "nM"}, {"measurement": "TGI", "setting": "UACC-257 melanoma", "result": 23.6, "unit": "nM"}, {"measurement": "GI50", "setting": "UACC-62 melanoma", "result": "< 10", "unit": "nM"}, {"measurement": "TGI", "setting": "UACC-62 melanoma", "result": 14.9, "unit": "nM"}]}]}
